“And” between values parts separate entries of the source, which are not always exact repeats. Equal entries are not always repeated. Toxic doses and inconclusive results are not listed. Rule as the data show it: active = T/C of 150% or more; inactive = T/C below 125%.
System: L1210 leukemia ip in BDF1 mice, survival T/C
Assay: NCI In Vivo Anticancer Drug Screen. Data for tumor model L1210 Leukemia (intraperitoneal) in B6D2F1 (BDF1) mice
Conditions: endpoint: mean survival time, higher = longer survival
Summary of the method: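 Tumor was transplanted into mice, which were then dosed with test compound or vehicle alone. Survival was recorded for each group, and the treated figure was expressed relative to the control figure.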

[1] = dose: 100.0 mg/kg/injection, schedule: Q01DX001 (ip), vehicle: carboxymethylcellulose (CMC)
[2] = dose: 200.0 mg/kg/injection, schedule: Q01DX001 (ip), vehicle: carboxymethylcellulose (CMC)
[3] = dose: 400.0 mg/kg/injection, schedule: Q01DX001 (ip), vehicle: carboxymethylcellulose (CMC)
[4] = dose: 100.0 mg/kg/injection, schedule: Q04DX003 (ip), vehicle: Klucel (hydroxypropylcellulose) (HPC)
[5] = dose: 200.0 mg/kg/injection, schedule: Q04DX003 (ip), vehicle: Klucel (hydroxypropylcellulose) (HPC)
[6] = dose: 400.0 mg/kg/injection, schedule: Q04DX003 (ip), vehicle: Klucel (hydroxypropylcellulose) (HPC)
[7] = dose: 100.0 mg/kg/injection, schedule: Q01DX009 (ip), vehicle: saline with Tween-80
[8] = dose: 100.0 mg/kg/injection, schedule: Q04DX003 (ip), vehicle: saline with Tween-80
[9] = dose: 200.0 mg/kg/injection, schedule: Q01DX009 (ip), vehicle: saline with Tween-80
[10] = dose: 200.0 mg/kg/injection, schedule: Q04DX003 (ip), vehicle: saline with Tween-80
[11] = dose: 400.0 mg/kg/injection, schedule: Q04DX003 (ip), vehicle: saline with Tween-80
[12] = dose: 100.0 mg/kg/injection, schedule: Q04DX002 (ip), vehicle: Klucel (hydroxypropylcellulose) (HPC)
[13] = dose: 100.0 mg/kg/injection, schedule: Q01DX001 (ip), vehicle: saline
[14] = dose: 200.0 mg/kg/injection, schedule: Q01DX001 (ip), vehicle: saline
[15] = dose: 400.0 mg/kg/injection, schedule: Q01DX001 (ip), vehicle: saline

Measured: T/C

O=C(O)c1cccc(Sc2ccccc2)c1
inactive: [1] 100 % of control | [2] 90 % of control | [3] 102 % of control

C/C(=C/C=C(/C)C(=O)O)C(=O)O
inactive: [1] 95 % of control | [4] 101 % of control | [2] 95 % of control | [5] 115 % of control | [3] 98 % of control | [6] 93 % of control

CCCCCCCC/C=C/CCCCCCCCNC(=O)NCCCl
inactive: [7] 95 % of control | [8] 87 % of control | [9] 92 % of control | [10] 87 % of control | [11] 94 % of control

CC1CCCN(N=Nc2ccc(Br)cc2-c2nc(N)c3cc(Br)ccc3n2)C1 (centres undefined)
inactive: dose: 25.0 mg/kg/injection, schedule: Q01DX001 (ip), vehicle: Klucel (hydroxypropylcellulose) (HPC) 97 % of control | dose: 50.0 mg/kg/injection, schedule: Q01DX001 (ip), vehicle: Klucel (hydroxypropylcellulose) (HPC) 105 % of control | dose: 100.0 mg/kg/injection, schedule: Q01DX001 (ip), vehicle: Klucel (hydroxypropylcellulose) (HPC) 102 % of control

c1cc(N2CCOCC2)cc(NC2CCCCC2)n1
inactive: dose: 5.0 mg/kg/injection, schedule: Q01DX001 (ip), vehicle: saline 95 % of control | dose: 10.0 mg/kg/injection, schedule: Q01DX001 (ip), vehicle: saline 104 % of control | dose: 20.0 mg/kg/injection, schedule: Q01DX001 (ip), vehicle: saline 97 % of control | dose: 40.0 mg/kg/injection, schedule: Q01DX001 (ip), vehicle: saline 103 % of control | dose: 80.0 mg/kg/injection, schedule: Q01DX001 (ip), vehicle: saline 98 % of control

Cc1ccc(S(=O)(=O)OCCCCl)cc1
inactive: [1] 112 % of control | [2] 106 % of control | [3] 101 % of control

CCOC(=O)C1=C(C)NC(C)=C(C(=O)OCC)C1c1ccccc1[N+](=O)[O-]
inactive: dose: 6.25 mg/kg/injection, schedule: Q01DX009 (ip), vehicle: saline with Tween-80 97 % of control | dose: 12.5 mg/kg/injection, schedule: Q01DX009 (ip), vehicle: saline with Tween-80 108 % of control | dose: 25.0 mg/kg/injection, schedule: Q01DX009 (ip), vehicle: saline with Tween-80 98 % of control and 105 % of control | [8] 90 % of control

Oc1ccc(Cl)cc1C=Nc1cnc2ccccc2c1
inactive: [1] 88 % of control | [3] 101 % of control

COc1ccn(C)c(=O)n1
inactive: dose: 12.5 mg/kg/injection, schedule: Q01DX009 (ip), vehicle: saline 112 % of control | dose: 12.5 mg/kg/injection, schedule: Q04DX003 (ip), vehicle: saline 110 % of control | dose: 25.0 mg/kg/injection, schedule: Q01DX009 (ip), vehicle: saline 93 % of control | dose: 25.0 mg/kg/injection, schedule: Q04DX003 (ip), vehicle: saline 91 % of control | dose: 50.0 mg/kg/injection, schedule: Q04DX003 (ip), vehicle: saline 96 % of control

COc1ccc(NC(=O)Nc2ccc(Cl)cc2C)cc1
inactive: dose: 100.0 mg/kg/injection, schedule: Q01DX009 (sc), vehicle: olive oil, sesame oil, peanut oil 100 % of control | dose: 100.0 mg/kg/injection, schedule: Q04DX003 (sc), vehicle: olive oil, sesame oil, peanut oil 101 % of control | dose: 200.0 mg/kg/injection, schedule: Q01DX009 (sc), vehicle: olive oil, sesame oil, peanut oil 102 % of control | dose: 200.0 mg/kg/injection, schedule: Q04DX003 (sc), vehicle: olive oil, sesame oil, peanut oil 100 % of control | dose: 400.0 mg/kg/injection, schedule: Q01DX009 (sc), vehicle: olive oil, sesame oil, peanut oil 96 % of control | dose: 400.0 mg/kg/injection, schedule: Q04DX003 (sc), vehicle: olive oil, sesame oil, peanut oil 98 % of control

c1ccc(P(CCP(c2ccccc2)c2ccccc2)CCP(c2ccccc2)c2ccccc2)cc1
inactive: [4] 91 % of control | [5] 96 % of control | [6] 96 % of control

O=C(C[n+]1ccccc1)N/N=C/c1ccc([N+](=O)[O-])s1
inactive: dose: 12.5 mg/kg/injection, schedule: Q01DX009 (ip), vehicle: water 96 % of control | dose: 25.0 mg/kg/injection, schedule: Q01DX009 (ip), vehicle: water 101 % of control

CCCCCCCCCCC(CCCCCC)C(=O)O (centres undefined)
inactive: dose: 100.0 mg/kg/injection, schedule: Q01DX001 (ip), vehicle: saline with Tween-80 95 % of control | dose: 200.0 mg/kg/injection, schedule: Q01DX001 (ip), vehicle: saline with Tween-80 96 % of control | dose: 400.0 mg/kg/injection, schedule: Q01DX001 (ip), vehicle: saline with Tween-80 90 % of control

COc1ccc(C[n+]2cccc(NC(=O)COc3ccc(Cl)c(Cl)c3)c2)cc1
inactive: [4] 97 % of control

NC(=S)N/N=C1\CCCC\C1=N/NC(N)=S
inactive: dose: 50.0 mg/kg/injection, schedule: Q01DX001 (ip), vehicle: carboxymethylcellulose (CMC) 101 % of control | [1] 109 % of control | [2] 101 % of control | [3] 104 % of control

C/C=C\C(=O)O
inactive: dose: 100.0 mg/kg/injection, schedule: Q01DX009 (ip), vehicle: saline 101 % of control | dose: 200.0 mg/kg/injection, schedule: Q01DX009 (ip), vehicle: saline 96 % of control

COc1ccc(NC(=S)N(CCC#N)C2CCCCC2)cc1
inactive: [12] 101 % of control | dose: 200.0 mg/kg/injection, schedule: Q04DX002 (ip), vehicle: Klucel (hydroxypropylcellulose) (HPC) 94 % of control | dose: 400.0 mg/kg/injection, schedule: Q04DX002 (ip), vehicle: Klucel (hydroxypropylcellulose) (HPC) 90 % of control

BrC1C2CCC(C2)C1Br (centres undefined)
inactive: [13] 102 % of control | [14] 100 % of control | [15] 100 % of control

NC1=NC(CCc2ccccc2)N(c2ccc3ccccc3c2)C(N)=N1 (centres undefined)
inactive: dose: 4.7 mg/kg/injection, schedule: Q01DX009 (ip), vehicle: saline sonified 96 % of control | dose: 9.4 mg/kg/injection, schedule: Q01DX009 (ip), vehicle: saline sonified 103 % of control | dose: 18.8 mg/kg/injection, schedule: Q01DX001 (ip), vehicle: saline 91 % of control

CC(O)C(=O)COP(=O)(O)O (centres undefined)
inactive: [13] 96 % of control | [14] 102 % of control | [15] 96 % of control

OCCNc1ccc(C2=NCCO2)cc1
inactive: [7] 106 % of control | [9] 97 % of control | dose: 400.0 mg/kg/injection, schedule: Q01DX009 (ip), vehicle: saline with Tween-80 91 % of control

O=C(CN1C2CCC1CC(O)C2)NCC1C(c2ccccc2)C1c1ccccc1 (centres undefined)
inactive: dose: 25.0 mg/kg/injection, schedule: Q04DX002 (ip), vehicle: Klucel (hydroxypropylcellulose) (HPC) 111 % of control | dose: 50.0 mg/kg/injection, schedule: Q04DX002 (ip), vehicle: Klucel (hydroxypropylcellulose) (HPC) 95 % of control | [12] 109 % of control

CN1COc2c(n(C)c(=O)[nH]c2=O)C1
inactive: dose: 50.0 mg/kg/injection, schedule: Q01DX001 (ip), vehicle: saline 97 % of control | [13] 103 % of control | [14] 89 % of control | [15] 101 % of control

CCOP(=S)(OCC)SC(C)(C)C
inactive: dose: 25.0 mg/kg/injection, schedule: Q04DX003 (ip), vehicle: saline with Tween-80 95 % of control | dose: 50.0 mg/kg/injection, schedule: Q04DX003 (ip), vehicle: saline with Tween-80 103 % of control | [8] 104 % of control and 108 % of control

N#CC(C#N)=C(C#N)c1cccn1Cc1ccccc1
inactive: dose: 87.5 mg/kg/injection, schedule: Q01DX009 (ip), vehicle: carboxymethylcellulose (CMC) 96 % of control | dose: 175.0 mg/kg/injection, schedule: Q01DX009 (ip), vehicle: carboxymethylcellulose (CMC) 95 % of control | dose: 350.0 mg/kg/injection, schedule: Q01DX009 (ip), vehicle: carboxymethylcellulose (CMC) 90 % of control

Clc1ccc(C=Nc2ccc(Cl)cc2)cc1
inactive: [8] 108 % of control | [10] 90 % of control | [11] 106 % of control

CC1(C)CC(=O)C2=C(C1)Nc1ccccc1CC2c1c[nH]c2ccccc12 (centres undefined)
inactive: dose: 100.0 mg/kg/injection, schedule: Q01DX001 (ip), vehicle: other 94 % of control | dose: 200.0 mg/kg/injection, schedule: Q01DX001 (ip), vehicle: other 103 % of control | dose: 400.0 mg/kg/injection, schedule: Q01DX001 (ip), vehicle: other 103 % of control

CC1(N)COP(=O)(NCCCN2CCOCC2)OC1 (centres undefined)
inactive: [13] 96 % of control | [14] 96 % of control | [15] 96 % of control
